Laboratory results from patent US8101605B2, “SHIP1 modulators and methods related thereto” (Aquinox Pharmaceuticals Inc., priority 2009, dated 2012).

What was measured:
[1] = tested on: OPM2 cells; experiment: Inhibition of OPM2 proliferation (BrdU ELISA); format: cell-based; settings: Homo sapiens, OPM-2, 72 hours, read-out: Scoring: % inhibition of OPM2 proliferation
Procedure: Test compounds were dissolved in 100% DMSO to form stock solutions. Prior to screening, the stock solutions were diluted with complete media (RPMI 1640 containing 10% fetal calf serum, 2 mM L-glutamine and 50 U/mL each of penicillin and streptomycin) to form working assay solutions that contain 0.2% DMSO. The assay was initiated by adding 30,000 OPM2 cells (in 50 μL) to 50 μL of representative compounds at concentrations ranging from 0.03 to 30 μM. The cells were incubated for 72 hours in a humidified CO2 incubator with the addition of 10 μM BrdU for the final 6 hours according to the directions from the Roche BrdU Cell Proliferation ELISA kit used to detect proliferation (Roche, Cat. No. 11 647 229 001). OPM2 cells incubated in 0.1% DMSO in complete media were used as a negative control and the PI3Kα Inhibitor 2 (3-[4-(4-morpholinyl)thieno[3,2-d]pyrimidin-2-yl-phenol, Cayman Chemical, Cat. No. 10010177) was used as a positive control for inhibition of proliferation. At the end of the incubation, the plate containing the labeled cells was centrifuged, the supernatant removed and the cell pellets dried at 60° C. for 1 hour and stored at 4° C. until further analysis. Analysis of BrdU incorporation was done according to the manufacturer's instructions.

[2] = biological target: T1, His-hSHIP1 enzyme (Homo sapiens, UniProt Q92835); experiment: His-hSHIP1 phosphatase activity assay (IP4 substrate, Biomol Green); format: biochemical; settings: percentage increase relative to background; concentrations ≦300 μM
T1 sequence (Q92835 1-1189): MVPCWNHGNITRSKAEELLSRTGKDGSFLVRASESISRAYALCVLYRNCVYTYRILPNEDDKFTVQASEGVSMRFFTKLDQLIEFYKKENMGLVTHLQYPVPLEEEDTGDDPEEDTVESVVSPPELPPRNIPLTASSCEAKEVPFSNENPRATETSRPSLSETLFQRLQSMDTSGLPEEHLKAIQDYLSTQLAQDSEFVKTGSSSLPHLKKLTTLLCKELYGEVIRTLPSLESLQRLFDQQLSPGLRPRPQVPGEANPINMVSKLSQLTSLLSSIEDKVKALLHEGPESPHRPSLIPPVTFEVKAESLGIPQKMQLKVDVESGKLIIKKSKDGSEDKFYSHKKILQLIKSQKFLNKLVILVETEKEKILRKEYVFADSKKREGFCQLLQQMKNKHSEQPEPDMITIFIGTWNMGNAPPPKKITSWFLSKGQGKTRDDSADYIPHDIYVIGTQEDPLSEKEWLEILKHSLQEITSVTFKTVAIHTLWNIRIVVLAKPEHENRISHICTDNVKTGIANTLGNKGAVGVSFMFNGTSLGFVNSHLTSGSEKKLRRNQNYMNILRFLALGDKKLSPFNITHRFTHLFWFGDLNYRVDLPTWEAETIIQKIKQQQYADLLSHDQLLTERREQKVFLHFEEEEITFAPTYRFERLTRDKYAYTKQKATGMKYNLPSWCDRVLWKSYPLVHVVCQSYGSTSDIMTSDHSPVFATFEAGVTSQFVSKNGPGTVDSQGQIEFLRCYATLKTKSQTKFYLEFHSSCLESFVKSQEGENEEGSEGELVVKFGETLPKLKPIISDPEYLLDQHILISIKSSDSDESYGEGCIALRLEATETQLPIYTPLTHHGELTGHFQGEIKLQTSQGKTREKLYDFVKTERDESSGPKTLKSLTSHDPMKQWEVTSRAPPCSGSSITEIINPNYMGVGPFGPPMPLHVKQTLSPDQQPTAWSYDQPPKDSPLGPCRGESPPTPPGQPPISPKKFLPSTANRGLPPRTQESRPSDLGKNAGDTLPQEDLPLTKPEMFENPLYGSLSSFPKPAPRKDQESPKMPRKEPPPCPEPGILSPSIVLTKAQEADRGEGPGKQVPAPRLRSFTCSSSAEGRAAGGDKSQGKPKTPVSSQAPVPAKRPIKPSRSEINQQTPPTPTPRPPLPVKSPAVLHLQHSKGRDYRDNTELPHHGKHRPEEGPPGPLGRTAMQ
Procedure: Test compounds were dissolved in 95% ethanol to form stock solutions. Before screening, the stock solutions were diluted with Phosphatase Assay Buffer (20 mM Tris-HCL, 10 mM MgCl2 pH 7.5, 0.02% Tween 20) to form working assay solutions that contained 10% ethanol. The assay was carried out on 96-well microtiter plates using a modified procedure of that reported by Ong et al., Blood 110, 1942-1949, 2007 and Yang et al., Org Lett 7, 1073-1076, 2005, both of which references are incorporated herein by reference in their entirety.
Each reaction contained 5 μL of His-hSHIP1 enzyme (15-20 ng), 10 μL of the substrate, 1,3,4,5-inositol tetrakisphosphate (IP4; 50 μM final), 5 μL of Phosphatase Assay Buffer, and 5 μL of test compound at various concentrations in 10% ethanol (0-300 μM final). Control blanks were also prepared by replacing His-hSHIP1 enzyme, IP4, or test compounds with Phosphatase Assay Buffer. After adding the reaction components in a 96-well microtiter plate on ice, the reaction was mixed by briefly shaking the plate vigorously. The reaction was then incubated at 37° C. for 15 min with gentle shaking followed by addition of 100 μL of Biomol Green Reagent (BIOMOL, PA, USA) to terminate the reaction. The free phosphate released from IP4 by His-hSHIP1 bound to the Biomol Green Reagent, turning the solution green in colour. After incubating the mixture for 20 min at room temperature for colour development, the absorbance was read with a SpectraMax Plus 96-well plate reader (Molecular Devices, Sunnyvale, Calif., USA) at a wavelength of 650 nm.
Percent (%) activation in Table 2 is expressed as a percentage increase relative to background. Scoring is expressed as follows: + (<50%); ++ (≧50% but <65%); +++ (≧65%).

[3] = tested on: Akt phosphorylation in Molt-4 (PTEN−/SHIP1+) cells; experiment: Akt phosphorylation in IGF-1 stimulated Molt-4 lymphocytes (western blot); format: cell-based; set-up: key: +: inhibits Akt phosphorylation at 10 μM; −: no effect on Akt phosphorylation at 10 μM; settings: 10 μM; IGF-1 stimulation
Procedure: (§1) Jurkat (PTEN−/SHIP1−) or Molt-4 (PTEN−/SHIP1+) cells were starved in serum free RPMI for overnight. In a 15 mL conical tube, 2-3 million serum starved cells (1 million cells per mL) were treated with various concentrations of test compound (0.1, 1, or 10 μM final in 0.1% DMSO) for 30 min at 37° C. followed by stimulation with 100 ng/mL of IGF-1 for 1 hour at 37° C. After stimulation, cells were washed once with ice-cold DPBS and lysed with Lysis Buffer (20 mM Tris-HCl, pH 7.5, 140 mM NaCl, 1% NP-40, Complete Mini Protease Inhibitor Cocktail, 10 mM NaF, 1 mM Na3VO4, 1 mM β-glycerolphosphate) on ice for 30 min with vortexing every 10 min. Samples were then centrifuged at 13,000 rpm for 20 min, and supernatants were collected as total cell lysate samples. Protein concentration was determined using bicinchonic acid assay, and about 15 μg of total protein from each sample was loaded and separated on a 4-12% Tris-Glycine gel. After SDS-PAGE, proteins were transferred from the gel to a nitrocellulose membrane. The membrane was blocked in 5% BSA in PBS containing 0.1% Tween-20 (PBS-T) for 1 hour at room temperature before probing with primary antibodies for overnight at 4° C. The following antibodies were used: mouse anti-SHIP1 (1:500 dilution; Santa Cruz, Calif., USA), rabbit anti-phospho-Akt(Ser473) (1:1000 dilution; Cell Signaling Technologies, MA, USA), rabbit anti-Akt (1:1000; Cell Signaling Technologies, MA, USA), and rabbit anti-actin (1:2000; Cell Signaling Technologies, MA, USA). The membrane was then incubated with goat anti-rabbit or anti-mouse secondary antibodies (1:3000) for 1 hour at room temperature. Target proteins on the membrane were detected with ECL solution and exposed on a film.
(§2) Scoring in Table 3 is expressed as follows: + (inhibits Akt phosphorylation at 10 μM); − (no effect on Akt phosphorylation at 10 μM).

[4] = tested on: Akt phosphorylation in Jurkat (PTEN−/SHIP1−) cells; experiment: Akt phosphorylation in IGF-1 stimulated Jurkat lymphocytes (western blot); format: cell-based; set-up: key: +: inhibits Akt phosphorylation at 10 μM; −: no effect on Akt phosphorylation at 10 μM; settings: 10 μM; IGF-1 stimulation
Procedure: as §1, §2

Q: With `COC(=O)CNC(=O)c1cc(O)c2c(c1)S(=O)(=O)C[C@@H]1[C@@]3(C)CCCC(C)(C)[C@@H]3CC[C@@]21C` [compound 92, methyl 2-{[(1R,10R,11S,16S)-3-hydroxy-1,11,15,15-tetramethyl-8,8-dioxo-8λ^6-thiatetracyclo[8.8.0.0^2,7.0^11,16]octadeca-2,4,6-trien-5-yl]formamido}acetate] as the molecule, how does the inhibition at 30 µM [1] read?
A: ≥ 75%

Q: And the “Scoring: percent (%) activation of His-hSHIP1 enzyme” value (shortened to “Scoring: percent (%) activation”) [2]?
A: + (<50%)

Q: `COc1cc(O)cc2c1[C@]1(C)CC[C@H]3C(C)(C)CCC[C@]3(C)[C@H]1CS2(=O)=O` [compound 57, (1R,10R,11S,16S)-5-hydroxy-3-methoxy-1,11,15,15-tetramethyl-8λ^6-thiatetracyclo[8.8.0.0^2,7.0^11,16]octadeca-2,4,6-triene-8,8-dione] was tested. Which inhibition at 30 µM [1] did it give?
A: ≥ 75%

Q: And the “Scoring: percent (%) activation” value [2]?
A: + (<50%)

Q: Which inhibition at 30 µM [1] does the source give for `COc1cc(OC)c2c(c1N)S(=O)(=O)C[C@@H]1[C@@]3(C)CCCC(C)(C)[C@@H]3CC[C@@]21C` [compound 112, (1R,10R,11S,16S)-6-amino-3,5-dimethoxy-1,11,15,15-tetramethyl-8^6-thiatetracyclo[8.8.0.0^2,7.0^11,16]octadeca-2,4,6-triene-8,8-dione] here?
A: ≥ 75%

Q: What does the source list for `CC1(C)CCC[C@]2(C)[C@H]3CS(=O)(=O)c4cc(C(=O)N5CCOCC5)cc(O)c4[C@]3(C)CC[C@@H]12` [compound 87, (1R,10R,11S,16S)-3-hydroxy-1,11,15,15-tetramethyl-5-[(morpholin-4-yl)-carbonyl]-8λ^6-thiatetracyclo[8.8.0.0^2,7.0^11,16]-octadeca-2,4,6-triene-8,8-dione]?
A: inhibition at 30 µM [1]: 25 to 75%; Scoring: percent (%) activation of His-hSHIP1 enzyme [2]: ++ (≧50% but <65%)

Q: For `COc1cc(OCC(=O)N2CCOCC2)cc2c1[C@]1(C)CC[C@H]3C(C)(C)CCC[C@]3(C)[C@H]1CS2(=O)=O` [compound 110, (1R,10R,11S,16S)-3-methoxy-1,11,15,15-tetramethyl-5-[2-(morpholin-4-yl)-2-oxoethoxy]-8^6-thiatetracyclo[8.8.0.0^2,7.0^11,16]octadeca-2,4,6-triene-8,8-dione], which inhibition at 30 µM [1] is on record?
A: < 25%

Q: What does the source list for `CC1(C)CCC[C@]2(C)[C@H]3COc4cc(O)cc(O)c4[C@]3(C)CC[C@@H]12` [Compound No. 50, (1R,10R,11S,16S)-1,11,15,15-tetramethyl-8-oxatetracyclo[8.8.0.0^2,7.0^11,16]octadeca-2,4,6-triene-3,5-diol]?
A: Akt phosphorylation, Molt-4 (SHIP1+) [3]: +; Scoring: percent (%) activation of His-hSHIP1 enzyme [2]: + (<50%); Akt phosphorylation, Jurkat (SHIP1−) [4]: −

Q: With `CC1(C)CCC[C@]2(C)[C@H]3CS(=O)(=O)c4cc(C(=O)N5CCNCC5)cc(O)c4[C@]3(C)CC[C@@H]12` [compound 102, (1R,10R,11S,16S)-3-hydroxy-1,11,15,15-tetramethyl-5-[(piperazin-1-yl)carbonyl]-8λ^6-thiatetracyclo[8.8.0.0^2,7.0^11,16]-octadeca-2,4,6-triene-8,8-dione] as the molecule, how does the inhibition at 30 µM [1] read?
A: ≥ 75%

Q: What about the “Scoring: percent (%) activation” value [2] of the same molecule?
A: + (<50%)

Q: How did the inhibition at 30 µM [1] turn out when `CN1CCN(C(=O)c2cc(O)c3c(c2)S(=O)(=O)C[C@@H]2[C@@]4(C)CCCC(C)(C)[C@@H]4CC[C@@]32C)CC1` [compound 89, (1R,10R,11S,16S)-3-hydroxy-1,11,15,15-tetramethyl-5-[(4-methylpiperazin-1-yl)-carbonyl]-8λ^6-thiatetracyclo[8.8.0.0^2,7.0^11,16]octadeca-2,4,6-triene-8,8-dione] was run?
A: ≥ 75%

Q: And the “Scoring: percent (%) activation” value [2]?
A: + (<50%)

Q: With `CNC(=O)c1cc(O)c2c(c1)S(=O)(=O)C[C@@H]1[C@@]3(C)CCCC(C)(C)[C@@H]3CC[C@@]21C` [Compound No. 62] as the molecule, how does the inhibition at 30 µM [1] read?
A: 25 to 75%

Q: And the “Scoring: percent (%) activation” value [2]?
A: ++ (≧50% but <65%)

Q: Which inhibition at 30 µM [1] does the source give for `CC1(C)CCC[C@]2(C)[C@H]3CSc4cc(O)cc(C#N)c4[C@]3(C)CC[C@@H]12` [compound 78, (1R,10R,11S,16S)-5-hydroxy-1,11,15,15-tetramethyl-8-thiatetracyclo[8.8.0.0^2,7.0^11,16]octadeca-2,4,6-triene-3-carbonitrile] here?
A: ≥ 75%

Q: What about the “Scoring: percent (%) activation” value [2] of the same molecule?
A: + (<50%)

Q: What does the source list for `CNC(=O)c1cc(OC)c2c(c1)S(=O)(=O)C[C@@H]1[C@@]3(C)CCCC(C)(C)[C@@H]3CC[C@@]21C` [compound 81, (1R,10R,11S,16S)-3-methoxy-N,1,11,15,15-pentamethyl-8,8-dioxo-8λ^6-thiatetracyclo[8.8.0.0^2,7.0^11,16]octadeca-2,4,6-triene-5-carboxamide]?
A: inhibition at 30 µM [1]: 25 to 75%; Scoring: percent (%) activation of His-hSHIP1 enzyme [2]: + (<50%)
